Where two headings read alike, the source gives them in different places.
What was measured:
Assay type in all cases: cell-based
[1] = test system: MDA-MB-231 line (mammary adenocarcinoma cell line); experiment: Cell proliferation (ATPLite) on MDA-MB-231 line; details: read 72 hours after addition
Protocol: (§1) The lines N1E115 (ATCC, CRL2263), MDA-MB-231 (ATCC, HTB26) and HSC-1 (Health Science Research Resources Bank, JCRB1015) were cultured in DMEM medium (Dulbecco's Modified Eagle Medium) supplemented with 2 mM of L-Glutamine (Sigma, G7513) and 10% foetal calf serum (Hyclone, SH30109.03) or 20% for the HSC-1 cells. The HCC-1937 (ATCC, CRL2336) and A549 (ATCC, CCL185) lines were cultured in RPMI medium (Roswell Park Memorial Institute Medium) supplemented with 10% foetal calf serum and 2 mM of L-Glutamine. Finally, the SCC114 (DSMZ, ACC662) line was cultured in MEM medium (Minimum Essential Medium Eagle) supplemented with 10% foetal calf serum and 2 mM of L-Glutamine. Initially, in 96-well plates (Perkin Elmer, 6005668), the cells were seeded in their respective culture media with 750 cells per well for N1E115; 1000 cells per well for SCC114 and A549; 2000 cells per well for HCC-1937 and HSC-1; 2500 cells per well for MDA-MB-231. Cascade dilution of each compound was performed in dimethylsulfoxide (DMSO) (Sigma, D8418) from 10 mM stock solutions in 100% DMSO. Each of the dilutions was added to the cells 24 hours after seeding. Under these conditions the final solvent concentration was 0.1% DMSO. Reading of cell proliferation was conducted 72 hours after addition of products with the ATPLite kit (Perkin Elmer, 6016947) and following the manufacturer's directions except in the case of the HCC-1937 line for which this reading was carried out 48 hours after treatment. Analysis of proliferation results was performed by comparing with conditions in which solely the vehicle was added to the cells. The dose-response curves obtained were analysed using Prism 4.03 software (GraphPad Software Inc.) to determine the concentration of each compound allowing 50% inhibition of cell proliferation (IC50).
(§2) As examples, the cytotoxic properties of some compounds of the invention evaluated on the lines A549 (lung cancer cell line), MDA-MB-231 line (mammary adenocarcinoma cell line), N1E115 (mouse brain neuroblastoma cell line), HCC-1937 line (primary ductam breast carcinoma cell line), HSC-1 (cutaneous squamous carcinoma cell line) and SCC114 line (oral squamous carcinoma cell line) are reported in Table 1, as compared with griseofulvin used as control product. The concentration values are expressed in micromolar units (μM).

[2] = test system: HCC-1937 line (primary ductam breast carcinoma cell line); experiment: Cell proliferation (ATPLite) on HCC-1937 line; details: read 48 hours after treatment
Protocol: as §1, §2

[3] = test system: A549 (lung cancer cell line); experiment: Cell proliferation (ATPLite) on A549 line; details: read 72 hours after addition
Protocol: as §1, §2

[4] = test system: N1E115 (mouse brain neuroblastoma cell line); experiment: Cell proliferation (ATPLite) on N1E115 line; details: 50% inhibition of cell proliferation, read 72 hours after addition, read-out: IC50 (μM) N1E-115
Protocol: as §1, §2

[5] = test system: SCC114 line (oral squamous carcinoma cell line); experiment: Cell proliferation (ATPLite) on SCC114 line; details: read 72 hours after addition
Protocol: as §1, §2

[6] = test system: HSC-1 (cutaneous squamous carcinoma cell line); experiment: Cell proliferation (ATPLite) on HSC-1 line; details: 50% inhibition of cell proliferation, read 72 hours after addition
Protocol: as §1, §2

[7] = 50% inhibition of cell proliferation
[8] = 50% inhibition of cell proliferation, read-out: IC50 (μM) HCC1937
[9] = Homo sapiens, MDA-MB-231, 50% inhibition of cell proliferation
[10] = Homo sapiens, HCC1937, 50% inhibition of cell proliferation
[11] = SCC114, 50% inhibition of cell proliferation

SMILES | IC50 [1, 7] | IC50 [2, 8] | IC50 [3, 7] | IC50 [4] | IC50 [5, 7] | IC50 [6] | IC50 [1, 9] | IC50 [2, 10] | IC50 [5, 11] | IC50 ([3]; Homo sapiens, A549, 50% inhibition of cell proliferation)
COc1cc(OC)c2c(c1Cl)O[C@]1(C2=O)C2=C(C[C@](C)(c3ccccc3)O2)C(=O)C[C@H]1C [compound 5, (2R,2′S,6R)-7′-chloro-4′,6′-dimethoxy-2,6-dimethyl-2-phenyl-5,6-dihydro-2H,3′H-2,7′-spirobi[benzofuran]-3′,4(3H)-dione] | 0.86 µM | > 10 µM | 0.95 µM | 0.25 µM | 0.38 µM |  |  |  |  | 
COc1cc(OC)c2c(c1Cl)O[C@]1(C2=O)C2=C(C[C@](CCCCO)(c3ccccc3)O2)C(=O)C[C@H]1C [compound 14, (2 S,2′S,6R)-7′-chloro-2-(4-hydroxybutyl)-4′,6′-dimethoxy-6-methyl-2-phenyl-5,6-dihydro-2H,3′H-2,7′-spirobi[benzofuran]-3′,4(3H)-dione] | 0.46 µM | > 10 µM | 0.44 µM |  | 0.74 µM | 0.86 µM |  |  |  | 
COc1cc(OC)c2c(c1Cl)O[C@]1(C2=O)C2=C(C[C@H](c3ccccc3F)O2)C(=O)C[C@H]1C [compound 37, (2R,2′S,6R)-7′-chloro-2-(2-fluorophenyl)-4′,6′-dimethoxy-6-methyl-5,6-dihydro-2H,3′H-2,7′-spirobi[benzofuran]-3′,4(3H)-dione] | 0.27 µM | > 10 µM |  |  | 0.47 µM | 1.4 µM |  |  |  | 
COc1cc(OC)c2c(c1Cl)O[C@]1(C2=O)C2=C(C[C@@](CCO)(c3ccccc3)O2)C(=O)C[C@H]1C [compound 46, (2R,2′S,6R)-7′-chloro-2-(2-hydroxyethyl)-4′,6′-dimethoxy-6-methyl-2-phenyl-5,6-dihydro-2H,3′H-2,7′-spirobi[benzofuran]-3′,4(3H)-dione] |  | > 10 µM | 0.86 µM | 0.22 µM | 0.57 µM | 0.79 µM |  |  |  | 
COc1cc(OC)c2c(c1Cl)O[C@]1(C2=O)C(=O)c2c(nn(C)c2-c2ccccc2Cl)C[C@H]1C [compound 115, (2S,6′R)-7-chloro-3′-(2-chlorophenyl)-4,6-dimethoxy-2′,6′-dimethyl-6′,7′-dihydro-3H-spiro[benzofuran-2,5′-indazole]-3,4′(2′H)-dione] |  |  |  |  |  | 1.3 µM | 0.64 µM | > 10 µM | 0.73 µM | 
COc1cc(OC)c2c(c1Cl)O[C@]1(C2=O)C(=O)c2c(nn(C)c2-c2ccccc2Cl)C[C@H]1C [compound 126, (2S,3′R,6′R)-7-chloro-3′-(2-chlorophenyl)-4,6-dimethoxy-2′,6′-dimethyl-6′,7′-dihydro-3H-spiro[benzofuran-2,5′-indazole]-3,4′(2′H)-dione] |  |  |  |  | 0.73 µM | 2.3 µM |  |  |  | 
COc1cc(OC)c2c(c1Cl)O[C@]1(C2=O)C(=O)c2c(nn(C)c2-c2ccccc2C(F)(F)F)C[C@H]1C [compound 135, (2S,3′S,6′R)-7-chloro-4,6-dimethoxy-2′,6′-dimethyl-3′-(2-(trifluoromethyl)phenyl)-6′,7′-dihydro-3H-spiro[benzofuran-2,5′-indazole]-3,4′(2′H)-dione] |  |  |  |  | 0.51 µM | 1.3 µM |  |  |  | 
COC(=O)c1cc(-c2ccc(F)cc2)c2c(n1)C[C@@H](C)[C@]1(Oc3c(Cl)c(OC)cc(OC)c3C1=O)C2=O [compound 164, (2S,7′R)-methyl 7-chloro-4′-(4-fluorophenyl)-4,6-dimethoxy-7′-methyl-3,5′-dioxo-7′,8′-dihydro-3H,5′H-spiro[benzofuran-2,6′-quinoline]-2′-carboxylate] |  |  |  |  |  | > 10 µM | 1.4 µM | > 10 µM | 0.43 µM | 0.45 µM
COc1cc(OC)c2c(c1Cl)O[C@]1(C2=O)C(N(C)CCN(C)c2ccccn2)=CC(=O)C[C@H]1C [compound 205, (1′S,6′R)-7-chloro-4,6-dimethoxy-6′-methyl-2′-(methyl(2-(methyl(pyridin-2-yl)amino)ethyl)amino)-3H-spiro[benzofuran-2,1′-cyclohex[2]ene]-3,4′-dione] |  |  | 9.2 µM |  | 0.62 µM | > 10 µM |  |  |  | 
COC(=O)c1cc(-c2ccc(F)cc2)c2c(n1)C[C@@H](C)[C@]1(Oc3c(Cl)c(OC)cc(OC)c3C1=O)C2O (stereo partly drawn) [compound 256, (2S,7′R)-methyl 7-chloro-4′-(4-fluorophenyl)-5′-hydroxy-4,6-dimethoxy-7′-methyl-3-oxo-7′,8′-dihydro-3H,5′H-spiro[benzofuran-2,6′-quinoline]-2′-carboxylate] |  |  |  |  |  | 0.84 µM | 0.33 µM | > 10 µM | 0.51 µM | 
COc1cc(OC)c2c(c1Cl)O[C@]1(C2=O)C(O)c2c(-c3ccccc3)cc(C(=O)OC(C)C)nc2C[C@H]1C (stereo partly drawn) [compound 257, (2S,7′R)-isopropyl 7-chloro-5′-hydroxy-4,6-dimethoxy-7′-methyl-3-oxo-4′-phenyl-7′,8′-dihydro-3H,5′H-spiro[benzofuran-2,6′-quinoline]-2′-carboxylate] |  |  |  |  |  | 2.4 µM | 0.43 µM | > 10 µM | 0.51 µM | 

The next lines start with the values.

IC50 [1, 7] | IC50 [2, 8] | IC50 [3, 7] | IC50 [4] | IC50 [5, 7] | IC50 [6] | IC50 [1, 9] | IC50 [2, 10] | IC50 [5, 11] | IC50 ([3]; Homo sapiens, A549, 50% inhibition of cell proliferation) | SMILES
0.18 µM | > 10 µM | 0.072 µM |  | 0.21 µM | 0.45 µM |  |  |  |  | COc1cc(OC)c2c(c1Cl)O[C@]1(C2=O)C2=C(C[C@H](c3ccc(F)cc3)O2)C(=O)C[C@H]1C [compound 34, (2R,2′S,6R)-7′-chloro-2-(4-fluorophenyl)-4′,6′-dimethoxy-6-methyl-5,6-dihydro-2H,3′H-2,7′-spirobi[benzofuran]-3′,4(3H)-dione]
0.25 µM | > 10 µM |  |  | 0.17 µM | 0.38 µM |  |  |  |  | COc1cc(OC)c2c(c1Cl)O[C@]1(C2=O)C2=C(C[C@@H](c3ccc(F)cc3)O2)C(=O)C[C@H]1C [compound 35, (2S,2′S,6R)-7′-chloro-2-(4-fluorophenyl)-4′,6′-dimethoxy-6-methyl-5,6-dihydro-2H,3′H-2,7′-spirobi[benzofuran]-3′,4(3H)-dione]
 |  |  |  | 0.021 µM | 0.14 µM |  |  |  |  | COc1cc(OC)c2c(c1Cl)O[C@@]1(C=C([S+]([O-])Cc3ccccc3)C(=O)C[C@H]1C)C2=O (stereo partly drawn) [compound 97, (1′S,6′R)-3′-(benzylsulfinyl)-7-chloro-4,6-dimethoxy-6′-methyl-3H-spiro[benzofuran-2,1′-cyclohex[2]ene]-3,4′-dione]
 |  |  |  | 0.41 µM | 0.76 µM |  |  |  |  | COc1cc(OC)c2c(c1Cl)O[C@@]1(C=C(S(=O)(=O)c3ccccc3)C(=O)C[C@H]1C)C2=O [compound 98, (1′S,6′R)-7-chloro-4,6-dimethoxy-6′-methyl-3′-(phenylsulfonyl)-3H-spiro[benzofuran-2,1′-cyclohex[2]ene]-3,4′-dione]
 |  |  |  | 0.14 µM | 0.25 µM |  |  |  |  | COc1cc(OC)c2c(c1Cl)O[C@]1(C2=O)C(=O)c2c(nn(C)c2-c2ccccc2Br)C[C@H]1C [compound 130, (2S,3′S,6′R)-7-chloro-3′-(2-bromophenyl)-4,6-dimethoxy-2′,6′-dimethyl-6′,7′-dihydro-3H-spiro[benzofuran-2,5′-indazole]-3,4′(2′H)-dione]
 |  |  |  |  | 0.5 µM | 0.17 µM | > 10 µM | 0.23 µM |  | COC(=O)C1=C[C@H](c2ccsc2)C2=C(C[C@@H](C)[C@]3(Oc4c(Cl)c(OC)cc(OC)c4C3=O)C2=O)N1 [compound 165, (2S,4′S,7′R)-methyl 7-chloro-4,6-dimethoxy-7′-methyl-3,5′-dioxo-4′-(thiophen-3-yl)-4′,5′,7′,8′-tetrahydro-1′H,3H-spiro[benzofuran-2,6′-quinoline]-2′-carboxylate]
 |  |  |  |  | 0.77 µM | 0.22 µM | > 10 µM | 0.38 µM |  | COC(=O)c1cc(-c2ccsc2)c2c(n1)C[C@@H](C)[C@]1(Oc3c(Cl)c(OC)cc(OC)c3C1=O)C2O (stereo partly drawn) [compound 255, (2S,7′R)-methyl 7-chloro-5′-hydroxy-4,6-dimethoxy-7′-methyl-3-oxo-4′-(thiophen-3-yl)-7′,8′-dihydro-3H,5′H-spiro[benzofuran-2,6′-quinoline]-2′-carboxylate]
